We go through 28 compounds from US20190231751A1, “TREATMENT OF FIBROTIC DISORDERS WITH JUN N-TERMINAL KINASE INHIBITORS” (Imago Pharmaceuticals, Inc., priority 2016, published 2019).

Holding throughout (type): biochemical
For test [1], the target named is JNK3 (Homo sapiens, UniProt P53779). The test can be described thus: In vitro JNK3 inhibition (Table 1). As to the method:
(§1) In vitro assays for the determination of JNK activities are known in the art and exemplary assay formats are described herein.
(§2) IC50 values in Table 1 were determined using the procedures as described in U.S. Pat. No. 8,450,353.

For test [2], the target named is JNK1 (Homo sapiens, UniProt P45983). The test can be described thus: In vitro JNK1 inhibition (Table 1). The procedure:
as §1, §2

The target in test [3] is JNK2 (Homo sapiens, UniProt P45984). The test can be described thus: In vitro JNK2 inhibition (Table 1). The procedure: as §1, §2
Sequence of JNK2 (P45984 whole entry, species assumed): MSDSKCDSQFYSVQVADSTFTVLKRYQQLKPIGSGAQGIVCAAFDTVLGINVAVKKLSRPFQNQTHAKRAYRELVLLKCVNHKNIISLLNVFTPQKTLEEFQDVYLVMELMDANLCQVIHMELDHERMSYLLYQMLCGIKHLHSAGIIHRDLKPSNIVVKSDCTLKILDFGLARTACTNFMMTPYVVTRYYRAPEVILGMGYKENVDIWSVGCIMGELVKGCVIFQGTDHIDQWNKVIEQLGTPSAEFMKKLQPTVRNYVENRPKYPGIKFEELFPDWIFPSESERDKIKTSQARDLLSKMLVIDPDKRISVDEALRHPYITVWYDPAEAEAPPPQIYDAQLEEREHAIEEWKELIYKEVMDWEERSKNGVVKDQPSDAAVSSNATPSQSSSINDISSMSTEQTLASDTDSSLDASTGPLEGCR

Sequence of JNK3 (P53779 whole entry, species assumed): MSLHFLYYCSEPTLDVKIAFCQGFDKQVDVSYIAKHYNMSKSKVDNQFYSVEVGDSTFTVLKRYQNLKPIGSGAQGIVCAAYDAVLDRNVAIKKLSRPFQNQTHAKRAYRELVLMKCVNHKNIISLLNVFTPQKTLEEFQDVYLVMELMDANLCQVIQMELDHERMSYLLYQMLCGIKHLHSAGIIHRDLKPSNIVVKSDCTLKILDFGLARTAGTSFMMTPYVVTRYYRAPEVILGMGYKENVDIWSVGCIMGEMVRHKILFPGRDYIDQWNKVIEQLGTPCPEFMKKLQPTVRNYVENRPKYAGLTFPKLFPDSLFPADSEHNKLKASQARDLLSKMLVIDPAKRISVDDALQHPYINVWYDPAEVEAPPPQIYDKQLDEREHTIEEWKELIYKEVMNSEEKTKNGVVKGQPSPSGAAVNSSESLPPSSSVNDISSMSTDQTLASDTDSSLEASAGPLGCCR
Sequence of JNK1 (P45983 whole entry, species assumed): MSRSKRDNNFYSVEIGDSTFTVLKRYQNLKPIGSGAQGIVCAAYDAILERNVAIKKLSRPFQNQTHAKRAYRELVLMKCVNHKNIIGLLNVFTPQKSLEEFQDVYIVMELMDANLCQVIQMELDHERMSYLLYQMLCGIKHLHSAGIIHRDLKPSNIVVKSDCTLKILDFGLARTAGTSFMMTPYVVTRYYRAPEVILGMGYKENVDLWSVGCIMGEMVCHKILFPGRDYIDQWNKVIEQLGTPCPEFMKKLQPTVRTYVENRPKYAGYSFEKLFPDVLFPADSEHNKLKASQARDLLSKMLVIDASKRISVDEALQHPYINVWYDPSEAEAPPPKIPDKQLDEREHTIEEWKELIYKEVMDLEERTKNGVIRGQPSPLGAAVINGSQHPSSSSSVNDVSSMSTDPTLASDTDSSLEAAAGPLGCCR

Usually IC50 stands for the point on the concentration scale where inhibition reaches its midpoint. Take `O=C(Cc1c(F)ccc2ncccc12)Nc1scc(Br)c1-c1ncn[nH]1` [N-(4-bromo-3-(1H-1,2,4-triazol-5-yl)thiophen-2-yl)-2-(6-fluoroquinolin-5-yl)acetamide]: the IC50 in test [1], in test [2] and in test [3] was less than 100 nM each time.
Turning to `C#Cc1ccc2c(ccc(=O)n2CC(=O)Nc2scc(Br)c2-c2ncn[nH]2)c1` [N-(4-bromo-3-(1H-1,2,4-triazol-5-yl)thiophen-2-yl)-2-(6-ethynyl-2-oxoquinolin-1(2H)-yl)acetamide], the IC50 in test [1], in test [2] and in test [3] was less than 100 nM throughout.
For `Cn1cnc(-c2c(Cl)csc2NC(=O)Cn2c(=O)ccc3cnc(C(F)(F)F)cc32)n1` [N-(4-chloro-3-(1-methyl-1H-1,2,4-triazol-3-yl)thiophen-2-yl)-2-(2-oxo-7-(trifluoromethyl)-1,6-naphthyridin-1(2H)-yl)acetamide], the IC50 in test [1], in test [2] and in test [3] was less than 100 nM throughout.
With `O=C(Cn1c(=O)ccc2cc(F)ccc21)Nc1scc(Br)c1-c1ncn[nH]1` [N-(4-bromo-3-(1H-1,2,4-triazol-5-yl)thiophen-2-yl)-2-(6-fluoro-2-oxoquinolin-1(2H)-yl)acetamide], the IC50 in test [1], in test [2] and in test [3] was less than 100 nM each time.
Turning to `N#Cc1ccc2c(ccc(=O)n2CC(=O)Nc2scc(Cl)c2-c2nc[nH]n2)c1` [N-(4-chloro-3-(1H-1,2,4-triazol-3-yl)thiophen-2-yl)-2-(6-cyano-2-oxoquinolin-1(2H)-yl)acetamide], the IC50 in test [1], in test [2] and in test [3] was less than 100 nM in each case.
As for `O=C(Cn1c(=O)ccc2ncccc21)Nc1scc(Br)c1-c1ncn[nH]1` [IGP002, N-(4-bromo-3-(1H-1,2,4-triazol-5-yl)thiophen-2-yl)-2-(2-oxo-1,5-naphthyridin-1(2H)-yl)acetamide], the IC50 in test [1], in test [2] and in test [3] was less than 100 nM each time.
For the compound `O=C(Cn1c(=O)ccc2cc(Br)ccc21)Nc1scc(Br)c1-c1nc[nH]n1` [2-(6-bromo-2-oxoquinolin-1(2H)-yl)-N-(4-bromo-3-(1H-1,2,4-triazol-3-yl)thiophen-2-yl)acetamide], the IC50 in test [1], in test [2] and in test [3] was less than 100 nM throughout.
On to `O=C(CN1C(=O)CCc2ncccc21)Nc1scc(Cl)c1-c1nc[nH]n1` [N-(4-chloro-3-(1H-1,2,4-triazol-3-yl)thiophen-2-yl)-2-(2-oxo-3,4-dihydro-1,5-naphthyridin-1(2H)-yl)acetamide], for which the IC50 in test [1], in test [2] and in test [3] was less than 100 nM throughout.
Take `O=C(CN1C(=O)CCc2cnccc21)Nc1scc(Br)c1-c1ncn[nH]1` [N-(4-bromo-3-(1H-1,2,4-triazol-5-yl)thiophen-2-yl)-2-(2-oxo-3,4-dihydro-1,6-naphthyridin-1(2H)-yl)acetamide]: the IC50 in test [1], in test [2] and in test [3] was less than 100 nM each time.
Take `O=C(Cn1c(=O)ccc2ccc(C(F)(F)F)cc21)Nc1scc(Br)c1-c1ncn[nH]1` [N-(4-bromo-3-(1H-1,2,4-triazol-5-yl)thiophen-2-yl)-2-(2-oxo-7-(trifluoromethyl)quinolin-1(2H)-yl)acetamide]: the IC50 in test [1], in test [2] and in test [3] was less than 100 nM in each case.
Regarding `O=C(CN1C(=O)CCc2ccccc21)Nc1scc(Cl)c1-c1ncn[nH]1` [N-(4-chloro-3-(1H-1,2,4-triazol-5-yl)thiophen-2-yl)-2-(2-oxo-3,4-dihydroquinolin-1(2H)-yl)acetamide], the IC50 in test [1], in test [2] and in test [3] was less than 100 nM in each case.
For `N#Cc1csc(NC(=O)Cn2c(=O)ccc3cc(C(F)(F)F)ccc32)c1-n1nccn1` [N-(4-cyano-3-(2H-1,2,3-triazol-2-yl)thiophen-2-yl)-2-(2-oxo-6-(trifluoromethyl)quinolin-1(2H)-yl)acetamide], the IC50 in test [1], in test [2] and in test [3] was less than 100 nM in each case.
Turning to `O=C(CN1C(=O)CCc2cc(C(F)(F)F)ccc21)Nc1scc(Br)c1-c1ncn[nH]1` [N-(4-bromo-3-(1H-1,2,4-triazol-5-yl)thiophen-2-yl)-2-(2-oxo-6-(trifluoromethyl)-3,4-dihydroquinolin-1(2H)-yl)acetamide], the IC50 in test [1], in test [2] and in test [3] was less than 100 nM each time.
`O=C(CN1C(=O)CCc2ncccc21)Nc1scc(Br)c1-c1ncn[nH]1` [N-(4-bromo-3-(1H-1,2,4-triazol-5-yl)thiophen-2-yl)-2-(2-oxo-3,4-dihydro-1,5-naphthyridin-1(2H)-yl)acetamide]: the IC50 in test [1], in test [2] and in test [3] was less than 100 nM each time.
Turning to `O=C(CN1C(=O)CCc2ccccc21)Nc1scc(Br)c1-c1ncn[nH]1` [N-(4-bromo-3-(1H-1,2,4-triazol-5-yl)thiophen-2-yl)-2-(2-oxo-3,4-dihydroquinolin-1(2H)-yl)acetamide], the IC50 in test [1], in test [2] and in test [3] was less than 100 nM each time.
In the case of `CN(C)CCCn1cnc(-c2c(Cl)csc2NC(=O)Cn2c(=O)ccc3cc(C(F)(F)F)ccc32)n1` [N-(4-chloro-3-(1-(3-(dimethylamino)propyl)-1H-1,2,4-triazol-3-yl)thiophen-2-yl)-2-(2-oxo-6-(trifluoromethyl)quinolin-1(2H)-yl)acetamide], the IC50 in test [1], in test [2] and in test [3] was less than 100 nM throughout.
In the case of `O=C(Cn1c(=O)ccc2ccc(F)cc21)Nc1scc(Br)c1-c1ncn[nH]1` [N-(4-bromo-3-(1H-1,2,4-triazol-5-yl)thiophen-2-yl)-2-(7-fluoro-2-oxoquinolin-1(2H)-yl)acetamide], the IC50 in test [1], in test [2] and in test [3] was less than 100 nM each time.
`N#Cc1ccc2ccc(=O)n(CC(=O)Nc3scc(Br)c3-c3ncn[nH]3)c2c1` [N-(4-bromo-3-(1H-1,2,4-triazol-5-yl)thiophen-2-yl)-2-(7-cyano-2-oxoquinolin-1(2H)-yl)acetamide]: the IC50 in test [1], in test [2] and in test [3] was less than 100 nM in each case.
Consider `O=C(Cn1c(=O)ccc2nc(C(F)(F)F)ccc21)Nc1scc(Br)c1-c1ncn[nH]1` [N-(4-bromo-3-(1H-1,2,4-triazol-5-yl)thiophen-2-yl)-2-(2-oxo-6-(trifluoromethyl)-1,5-naphthyridin-1(2H)-yl)acetamide], for which the IC50 in test [1], in test [2] and in test [3] was less than 100 nM in each case.
As for `Cn1cnc(-c2c(C#N)csc2NC(=O)CN2C(=O)CCc3ncccc32)n1` [N-(4-cyano-3-(1-methyl-1H-1,2,4-triazol-3-yl)thiophen-2-yl)-2-(2-oxo-3,4-dihydro-1,5-naphthyridin-1(2H)-yl)acetamide], the IC50 in test [1], in test [2] and in test [3] was less than 100 nM throughout.
With `N#Cc1csc(NC(=O)Cn2c(=O)ccc3cc(C(F)(F)F)ccc32)c1-n1ccnn1` [N-(4-cyano-3-(1H-1,2,3-triazol-1-yl)thiophen-2-yl)-2-(2-oxo-6-triazol-1-yl)-4-cyanothiophen-2-yl)-2-(2-oxo-6-(trifluoromethyl)quinolin-1(2H)-yl)acetamide], the IC50 in test [1], in test [2] and in test [3] was 100 to 10000 nM each time.
`Cc1csc(NC(=O)CN2C(=O)CCc3ccccc32)c1-c1ncn[nH]1` [N-(4-methyl-3-(1H-1,2,4-triazol-5-yl)thiophen-2-yl)-2-(2-oxo-3,4-dihydroquinolin-1(2H)-yl)acetamide]: the IC50 in test [1] is less than 100 nM; in test [2], less than 100 nM; in test [3], less than 10000 nM.
As to `O=C(CN1C(=O)CCc2ncccc21)Nc1scc(Br)c1-c1ncco1` [N-(4-bromo-3-(oxazol-2-yl)thiophen-2-yl)-2-(2-oxo-3,4-dihydro-1,5-naphthyridin-1(2H)-yl)acetamide], the IC50 in test [1], in test [2] and in test [3] was less than 100 nM each time.
As for `O=C(Cn1c(=O)ccc2cc(C(F)(F)F)ccc21)Nc1scc(Cl)c1-c1ncn[nH]1` [N-(4-chloro-3-(1H-1,2,4-triazol-5-yl)thiophen-2-yl)-2-(2-oxo-6-(trifluoromethyl)quinolin-1(2H)-yl)acetamide], the IC50 in test [1], in test [2] and in test [3] was less than 100 nM each time.
For `O=C(Cn1c(=O)ccc2cnc(C(F)(F)F)cc21)Nc1scc(Br)c1-c1ncn[nH]1` [N-(4-bromo-3-(1H-1,2,4-triazol-5-yl)thiophen-2-yl)-2-(2-oxo-7-(trifluoromethyl)-1,6-naphthyridin-1(2H)-yl)acetamide], the IC50 in test [1], in test [2] and in test [3] was less than 100 nM each time.
Consider `N#Cc1csc(NC(=O)Cn2c(=O)ccc3cc(C(F)(F)F)ccc32)c1-c1cscn1` [N-(4-cyano-3-(thiazol-4-yl)thiophen-2-yl)-2-(2-oxo-6-(trifluoromethyl)quinolin-1(2H)-yl)acetamide], for which the IC50 in test [1], in test [2] and in test [3] was less than 100 nM throughout.
Turning to `N#Cc1csc(NC(=O)CN2C(=O)CCc3ncccc32)c1-c1nccs1` [N-(4-cyano-3-(thiazol-2-yl)thiophen-2-yl)-2-(2-oxo-3,4-dihydro-1,5-naphthyridin-1(2H)-yl)acetamide], the IC50 in test [1], in test [2] and in test [3] was less than 100 nM each time.
Take `O=C(Cn1c(=O)ccc2cc(C(F)(F)F)c(F)cc21)Nc1scc(Br)c1-c1ncn[nH]1` [N-(4-bromo-3-(1H-1,2,4-triazol-5-yl)thiophen-2-yl)-2-(7-fluoro-2-oxo-6-(trifluoromethyl)quinolin-1(2H)-yl)acetamide]: the IC50 in test [1], in test [2] and in test [3] was less than 100 nM in each case.
